# According to paper PMC12310023 (PLOS Neglected Tropical Diseases, 2025):
# Tested on: NLuc-expressing C. parvum
# Assay: NLuc C. parvum IFNγ-KO mouse infection model, oocyst shedding
# Type: in vivo
compound,measurement,setting,value
CC(C)(CO)Cn1nc(-c2ccc3cc(OC4CC4)ccc3c2)c(C(N)=O)c1N [compound 1708],RLU standardized by fecal weight,"15 mg/kg x 3 days, group I, day 6 p.i., Cp Mouse Efficacy 2",251957 RLU
same,RLU standardized by fecal weight,"15 mg/kg x 3 days, group I, day 7 p.i., Cp Mouse Efficacy 2",85920 RLU
same,RLU standardized by fecal weight,"15 mg/kg x 3 days, group I, day 8 p.i., Cp Mouse Efficacy 2",79354 RLU
same,RLU standardized by fecal weight,"15 mg/kg x 3 days, group I, day 9 p.i., Cp Mouse Efficacy 2",5065 RLU
same,RLU standardized by fecal weight,"15 mg/kg x 3 days, group I, day 10 p.i., Cp Mouse Efficacy 2",1311 RLU
same,RLU standardized by fecal weight,"15 mg/kg x 3 days, group I, day 13 p.i., Cp Mouse Efficacy 2",474 RLU
same,RLU standardized by fecal weight,"15 mg/kg x 3 days, group I, day 15 p.i., Cp Mouse Efficacy 2",57 RLU
same,RLU standardized by fecal weight,"15 mg/kg x 3 days, group I, day 17 p.i., Cp Mouse Efficacy 2",57 RLU
same,RLU standardized by fecal weight,"15 mg/kg x 3 days, group I, day 20 p.i., Cp Mouse Efficacy 2",227 RLU
same,RLU Raw,"30 mg/kg QD x3, group G, Day 6, Cp Mouse Efficacy 1",1295216 RLU
same,RLU Raw,"30 mg/kg QD x3, group G, Day 7, Cp Mouse Efficacy 1",1222624 RLU
same,RLU Raw,"30 mg/kg QD x3, group G, Day 8, Cp Mouse Efficacy 1",619376 RLU
same,RLU Raw,"30 mg/kg QD x3, group G, Day 9, Cp Mouse Efficacy 1",66208 RLU
same,RLU Raw,"30 mg/kg QD x3, group G, Day 10, Cp Mouse Efficacy 1",17152 RLU
same,RLU Raw,"30 mg/kg QD x3, group G, Day 13, Cp Mouse Efficacy 1",2912 RLU
same,RLU Raw,"30 mg/kg QD x3, group G, Day 15, Cp Mouse Efficacy 1",4896 RLU
same,RLU Raw,"30 mg/kg QD x3, group G, Day 17, Cp Mouse Efficacy 1",1792 RLU
same,RLU Raw,"30 mg/kg QD x3, group G, Day 20, Cp Mouse Efficacy 1",7008 RLU
same,RLU standardized by fecal weight,"30 mg/kg QD x3, group G, day 6 p.i., Cp Mouse Efficacy 1",182425 RLU
same,RLU standardized by fecal weight,"30 mg/kg QD x3, group G, day 7 p.i., Cp Mouse Efficacy 1",166343 RLU
same,RLU standardized by fecal weight,"30 mg/kg QD x3, group G, day 8 p.i., Cp Mouse Efficacy 1",154844 RLU
same,RLU standardized by fecal weight,"30 mg/kg QD x3, group G, day 9 p.i., Cp Mouse Efficacy 1",14087 RLU
same,RLU standardized by fecal weight,"30 mg/kg QD x3, group G, day 10 p.i., Cp Mouse Efficacy 1",2907 RLU
same,RLU standardized by fecal weight,"30 mg/kg QD x3, group G, day 13 p.i., Cp Mouse Efficacy 1",391 RLU
same,RLU standardized by fecal weight,"30 mg/kg QD x3, group G, day 15 p.i., Cp Mouse Efficacy 1",401 RLU
same,RLU standardized by fecal weight,"30 mg/kg QD x3, group G, day 17 p.i., Cp Mouse Efficacy 1",224 RLU
same,RLU standardized by fecal weight,"30 mg/kg QD x3, group G, day 20 p.i., Cp Mouse Efficacy 1",904 RLU
same,RLU Raw,"30 mg/kg x 1 days, group F, Day 6, Cp Mouse Efficacy 2",255712 RLU
same,RLU Raw,"30 mg/kg x 1 days, group F, Day 7, Cp Mouse Efficacy 2",157696 RLU
same,RLU Raw,"30 mg/kg x 1 days, group F, Day 8, Cp Mouse Efficacy 2",335600 RLU
same,RLU Raw,"30 mg/kg x 1 days, group F, Day 9, Cp Mouse Efficacy 2",101760 RLU
same,RLU Raw,"30 mg/kg x 1 days, group F, Day 10, Cp Mouse Efficacy 2",181040 RLU
same,RLU Raw,"30 mg/kg x 1 days, group F, Day 13, Cp Mouse Efficacy 2",15056 RLU
same,RLU Raw,"30 mg/kg x 1 days, group F, Day 15, Cp Mouse Efficacy 2",22080 RLU
same,RLU Raw,"30 mg/kg x 1 days, group F, Day 17, Cp Mouse Efficacy 2",4144 RLU
same,RLU Raw,"30 mg/kg x 1 days, group F, Day 20, Cp Mouse Efficacy 2",2768 RLU
same,RLU standardized by fecal weight,"30 mg/kg x 1 days, group F, day 6 p.i., Cp Mouse Efficacy 2",39645 RLU
same,RLU standardized by fecal weight,"30 mg/kg x 1 days, group F, day 7 p.i., Cp Mouse Efficacy 2",24640 RLU
same,RLU standardized by fecal weight,"30 mg/kg x 1 days, group F, day 8 p.i., Cp Mouse Efficacy 2",55471 RLU
same,RLU standardized by fecal weight,"30 mg/kg x 1 days, group F, day 9 p.i., Cp Mouse Efficacy 2",16820 RLU
same,RLU standardized by fecal weight,"30 mg/kg x 1 days, group F, day 10 p.i., Cp Mouse Efficacy 2",20342 RLU
same,RLU standardized by fecal weight,"30 mg/kg x 1 days, group F, day 13 p.i., Cp Mouse Efficacy 2",2841 RLU
same,RLU standardized by fecal weight,"30 mg/kg x 1 days, group F, day 15 p.i., Cp Mouse Efficacy 2",3046 RLU
same,RLU standardized by fecal weight,"30 mg/kg x 1 days, group F, day 17 p.i., Cp Mouse Efficacy 2",975 RLU
same,RLU standardized by fecal weight,"30 mg/kg x 1 days, group F, day 20 p.i., Cp Mouse Efficacy 2",410 RLU
same,RLU Raw,"60 mg/kg QD x3, group F, Day 6, Cp Mouse Efficacy 1",2614768 RLU
same,RLU Raw,"60 mg/kg QD x3, group F, Day 7, Cp Mouse Efficacy 1",2391472 RLU
same,RLU Raw,"60 mg/kg QD x3, group F, Day 8, Cp Mouse Efficacy 1",411984 RLU
same,RLU Raw,"60 mg/kg QD x3, group F, Day 9, Cp Mouse Efficacy 1",18336 RLU
same,RLU Raw,"60 mg/kg QD x3, group F, Day 10, Cp Mouse Efficacy 1",2272 RLU
same,RLU Raw,"60 mg/kg QD x3, group F, Day 13, Cp Mouse Efficacy 1",576 RLU
same,RLU Raw,"60 mg/kg QD x3, group F, Day 15, Cp Mouse Efficacy 1",304 RLU
same,RLU Raw,"60 mg/kg QD x3, group F, Day 17, Cp Mouse Efficacy 1",144 RLU
same,RLU Raw,"60 mg/kg QD x3, group F, Day 20, Cp Mouse Efficacy 1",224 RLU
same,RLU standardized by fecal weight,"60 mg/kg QD x3, group F, day 6 p.i., Cp Mouse Efficacy 1",261477 RLU
same,RLU standardized by fecal weight,"60 mg/kg QD x3, group F, day 7 p.i., Cp Mouse Efficacy 1",201812 RLU
same,RLU standardized by fecal weight,"60 mg/kg QD x3, group F, day 8 p.i., Cp Mouse Efficacy 1",45026 RLU
same,RLU standardized by fecal weight,"60 mg/kg QD x3, group F, day 9 p.i., Cp Mouse Efficacy 1",3245 RLU
same,RLU standardized by fecal weight,"60 mg/kg QD x3, group F, day 10 p.i., Cp Mouse Efficacy 1",215 RLU
same,RLU standardized by fecal weight,"60 mg/kg QD x3, group F, day 13 p.i., Cp Mouse Efficacy 1",93 RLU
same,RLU standardized by fecal weight,"60 mg/kg QD x3, group F, day 15 p.i., Cp Mouse Efficacy 1",78 RLU
same,RLU standardized by fecal weight,"60 mg/kg QD x3, group F, day 17 p.i., Cp Mouse Efficacy 1",33 RLU
same,RLU standardized by fecal weight,"60 mg/kg QD x3, group F, day 20 p.i., Cp Mouse Efficacy 1",67 RLU
same,RLU Raw,"60 mg/kg x 1 day, group E, Day 6, Cp Mouse Efficacy 2",814080 RLU
same,RLU Raw,"60 mg/kg x 1 day, group E, Day 7, Cp Mouse Efficacy 2",339152 RLU
same,RLU Raw,"60 mg/kg x 1 day, group E, Day 8, Cp Mouse Efficacy 2",54176 RLU
same,RLU Raw,"60 mg/kg x 1 day, group E, Day 9, Cp Mouse Efficacy 2",52848 RLU
same,RLU Raw,"60 mg/kg x 1 day, group E, Day 10, Cp Mouse Efficacy 2",91232 RLU
same,RLU Raw,"60 mg/kg x 1 day, group E, Day 13, Cp Mouse Efficacy 2",5456 RLU
same,RLU Raw,"60 mg/kg x 1 day, group E, Day 15, Cp Mouse Efficacy 2",4592 RLU
same,RLU Raw,"60 mg/kg x 1 day, group E, Day 17, Cp Mouse Efficacy 2",5520 RLU
same,RLU Raw,"60 mg/kg x 1 day, group E, Day 20, Cp Mouse Efficacy 2",2336 RLU
same,RLU standardized by fecal weight,"60 mg/kg x 1 day, group E, day 6 p.i., Cp Mouse Efficacy 2",144085 RLU
same,RLU standardized by fecal weight,"60 mg/kg x 1 day, group E, day 7 p.i., Cp Mouse Efficacy 2",44625 RLU
same,RLU standardized by fecal weight,"60 mg/kg x 1 day, group E, day 8 p.i., Cp Mouse Efficacy 2",11405 RLU
same,RLU standardized by fecal weight,"60 mg/kg x 1 day, group E, day 9 p.i., Cp Mouse Efficacy 2",12435 RLU
same,RLU standardized by fecal weight,"60 mg/kg x 1 day, group E, day 10 p.i., Cp Mouse Efficacy 2",12329 RLU
same,RLU standardized by fecal weight,"60 mg/kg x 1 day, group E, day 13 p.i., Cp Mouse Efficacy 2",774 RLU
same,RLU standardized by fecal weight,"60 mg/kg x 1 day, group E, day 15 p.i., Cp Mouse Efficacy 2",399 RLU
same,RLU standardized by fecal weight,"60 mg/kg x 1 day, group E, day 17 p.i., Cp Mouse Efficacy 2",726 RLU
same,RLU standardized by fecal weight,"60 mg/kg x 1 day, group E, day 20 p.i., Cp Mouse Efficacy 2",525 RLU
